# Laboratory results as given in article PMC4605392 (The international journal of biochemistry & cell biology, 2010).
# Where “and” joins values, the source holds several entries; their conditions need not be identical. Identical values can stand only once. Counter-ions that a name gives are not always drawn. Like-named read-outs stand apart in the source and are kept apart here.
# Columns and labels:
# [1] = target: human α4β2 AChR (Homo sapiens, UniProt P17787+P43681); assay: cell-based; type: cell-based
# [2] = target: [^3H]imipramine binding sites at the human α4β2 AChR (Homo sapiens, UniProt P17787+P43681); conditions: for ΔG^20: calculated from Ki, Eq. (4), 293 K
# [3] = ref Nangia et al., 1996; cited from earlier work
# [4] = therapeutic doses, ref Glotzbach and Preskorn, 1982; cited from earlier work
# [5] = target: T1, hα4β2 AChR (Homo sapiens, UniProt P17787+P43681); type: binding; conditions: for koff: 20 °C; for kon: kon = koff·Ka
# [6] = target: T1, hα4β2 AChR; assay: Thermodynamic parameters of imipramine binding; conditions: for Ea (dissociation process): Arrhenius plot; for ΔH°: van't Hoff plot; for ΔG^20: Eq. (8); for ΔH^+ (enthalpy change of the transition state): Eq. (10)
# [7] = target: T1, hα4β2 AChR; assay: Equilibrium binding of [3H]imipramine to HEK293-hα4β2 AChR membranes
# [8] = desensitized state, presence of 1 μM (−)-cytisine
# [9] = resting state, presence of k-BTx
# [10] = Ki, resting state, absence of k-BTx (no ligand)
# [11] = resting state, absence of k-BTx (no ligand)
# [12] = resting state, absence of k-BTx
# [13] = Epibatidine treated column (desensitized state)
# [14] = κ-BTx treated column (resting state)
compound,measurement,setting,value
"CNC1(C)C2CCC(C2)C1(C)C (racemic) [(±)-Mecamylamine, (±)-mecamylamine hydrochloride]",IC50,[1],3000 ± 700 nM
same,nH (Hill coefficient),[1],1.17 ± 0.12
same,IC50,"[2]; IC50, desensitized state, presence of 1 μM (−)-cytisine",209000 ± 34000 nM
same,IC50,"[2]; IC50, resting state, presence of k-BTx",135000 ± 19000 nM
same,inhibition of specific [3H]imipramine binding,"[2]; at maximum concentration tested, resting and desensitized states",~ 70%
same,nH (Hill coefficient),[2]; [8],0.58 ± 0.06
same,nH (Hill coefficient),[2]; [9],0.53 ± 0.05
same,pKa,[3],11.4
"Clc1ccc(C2CC3CCC2N3)cn1 (racemic) [(±)-epibatidine, (±)-Epibatidine]",nH (Hill coefficient),"[1]; activation of hα4β2 AChR, Ca2+ influx in HEK293-hα4β2 cells",1.03 ± 0.04
"CN(C)CCC=C1c2ccccc2CCc2ccccc21 [Amitriptyline, amitriptyline hydrochloride]",IC50,[1],2200 ± 600 nM
same,nH (Hill coefficient),[1],1.50 ± 0.08
same,concentration in the rat brain,[4],1000 to 10000 nM
same,Ki,[2]; [10],1100 ± 100 nM
same,nH (Hill coefficient),[2]; [11],0.98 ± 0.11
same,ΔG^20,[2]; [12],-7.96 ± 0.072 kcal/mol
"CN(C)CCC=C1c2ccccc2COc2ccccc21 [Doxepin, doxepin hydrochloride]",IC50,[1],6800 ± 1600 nM
same,nH (Hill coefficient),[1],1.32 ± 0.29
same,Ki,[2],2100 ± 200 nM
same,nH (Hill coefficient),[2]; [11],0.73 ± 0.05
same,ΔG^20,[2]; [12],-7.6 ± 0.072 kcal/mol
"CN(C)CCCN1c2ccccc2CCc2ccccc21 [Imipramine, Imipramine hydrochloride]",IC50,[1],5400 ± 1200 nM
same,nH (Hill coefficient),[1],1.39 ± 0.13
same,Ka,[5]; [13],2.52 ± 0.08 µM⁻¹
same,koff,[5]; [13],0.076 ± 0.002 s⁻¹
same,ΔG^20,"[5]; Epibatidine treated column (desensitized state), Eq. (4)",-8.58 ± 0.024 kcal/mol
same,kon,[5]; [13],192000 ± 3000 M⁻¹ s⁻¹
same,Ka,[5]; [14],2.54 ± 0.07 µM⁻¹
same,koff,[5]; [14],0.09 ± 0.001 s⁻¹
same,kon,[5]; [14],229000 ± 8000 M⁻¹ s⁻¹
same,−TΔS°,[6]; [13],-5.93 kcal/mol and -5.93 ± 0.382 kcal/mol
same,Ea (dissociation process),[6]; [13],2.96 ± 0.263 kcal/mol
same,ΔH°,[6]; [13],-2.65 kcal/mol and -2.65 ± 0.382 kcal/mol
same,ΔG^20,[6]; [13],-8.58 ± 0.478 kcal/mol
same,ΔH^+ (enthalpy change of the transition state),[6]; [13],2.37 ± 0.263 kcal/mol
same,−TΔS°,[6]; [14],-3.85 ± 0.55 kcal/mol
same,Ea (dissociation process),[6]; [14],4.54 ± 0.454 kcal/mol
same,ΔH°,[6]; [14],-4.76 ± 0.55 kcal/mol
same,ΔG^20,[6]; [14],-8.56 ± 0.693 kcal/mol
same,ΔH^+ (enthalpy change of the transition state),[6]; [14],3.97 ± 0.454 kcal/mol
same,Ki,"[2]; Ki, desensitized state, presence of 1 μM (−)-cytisine",970 ± 100 nM
same,Ki,[2]; [10],1100 ± 100 nM
same,Ki,"[2]; Ki, resting state, presence of 0.1 μM k-BTx",930 nM
same,nH (Hill coefficient),[2]; [8],0.84 ± 0.07
same,ΔG^20,"[2]; desensitized state, presence of (−)-cytisine",-8.05 ± 0.048 kcal/mol
same,nH (Hill coefficient),[2]; [11],0.73 ± 0.04
same,ΔG^20,[2]; [12],-7.98 ± 0.048 kcal/mol
same,nH (Hill coefficient),[2]; [9],0.87 ± 0.07
[^3H]Imipramine,"specific activity (Bmax, imipramine binding sites)","[7]; HEK293-hα4β2 membranes, x-intersect of Rosenthal-Scatchard plot",8.6 ± 0.5 pmol/mg protein
same,Kd,"[7]; resting/no ligand state, Rosenthal-Scatchard plot, 2 h at RT",830 ± 80 nM
